Results reported in patent US12209081B2 (Katholieke Universiteit Leuven, priority 2020, dated 2025).

These compounds were tested against mouse TRPM3α2 (mTRPM3) ion channel (Mus musculus (Mouse), UniProt J9SQF3) (assay: TRPM3 ion channel driven Ca2+ uptake, Fluo-4 AM assay, mTRPM3alpha2 overexpressing flip-in HEK293 cells stimulated with pregnenolone sulfate). Details: PS (50 μM) stimulated, cpd 001-199.
Assay type: cell-based
In short: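 Flip-in HEK293 cells loaded with Fluo-4 AM were added to plates holding compound plus 50 μM pregnenolone sulfate in Ca2+-containing Krebs buffer. Fluorescence (ex 485/em 535 nm) read directly after cell addition; % inhibition relative to PS-stimulated vehicle and positive-control inhibitor.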

mouse TRPM3α2 (mTRPM3) ion channel, sequence (J9SQF3 other isoform, or with tags, fused parts or gaps): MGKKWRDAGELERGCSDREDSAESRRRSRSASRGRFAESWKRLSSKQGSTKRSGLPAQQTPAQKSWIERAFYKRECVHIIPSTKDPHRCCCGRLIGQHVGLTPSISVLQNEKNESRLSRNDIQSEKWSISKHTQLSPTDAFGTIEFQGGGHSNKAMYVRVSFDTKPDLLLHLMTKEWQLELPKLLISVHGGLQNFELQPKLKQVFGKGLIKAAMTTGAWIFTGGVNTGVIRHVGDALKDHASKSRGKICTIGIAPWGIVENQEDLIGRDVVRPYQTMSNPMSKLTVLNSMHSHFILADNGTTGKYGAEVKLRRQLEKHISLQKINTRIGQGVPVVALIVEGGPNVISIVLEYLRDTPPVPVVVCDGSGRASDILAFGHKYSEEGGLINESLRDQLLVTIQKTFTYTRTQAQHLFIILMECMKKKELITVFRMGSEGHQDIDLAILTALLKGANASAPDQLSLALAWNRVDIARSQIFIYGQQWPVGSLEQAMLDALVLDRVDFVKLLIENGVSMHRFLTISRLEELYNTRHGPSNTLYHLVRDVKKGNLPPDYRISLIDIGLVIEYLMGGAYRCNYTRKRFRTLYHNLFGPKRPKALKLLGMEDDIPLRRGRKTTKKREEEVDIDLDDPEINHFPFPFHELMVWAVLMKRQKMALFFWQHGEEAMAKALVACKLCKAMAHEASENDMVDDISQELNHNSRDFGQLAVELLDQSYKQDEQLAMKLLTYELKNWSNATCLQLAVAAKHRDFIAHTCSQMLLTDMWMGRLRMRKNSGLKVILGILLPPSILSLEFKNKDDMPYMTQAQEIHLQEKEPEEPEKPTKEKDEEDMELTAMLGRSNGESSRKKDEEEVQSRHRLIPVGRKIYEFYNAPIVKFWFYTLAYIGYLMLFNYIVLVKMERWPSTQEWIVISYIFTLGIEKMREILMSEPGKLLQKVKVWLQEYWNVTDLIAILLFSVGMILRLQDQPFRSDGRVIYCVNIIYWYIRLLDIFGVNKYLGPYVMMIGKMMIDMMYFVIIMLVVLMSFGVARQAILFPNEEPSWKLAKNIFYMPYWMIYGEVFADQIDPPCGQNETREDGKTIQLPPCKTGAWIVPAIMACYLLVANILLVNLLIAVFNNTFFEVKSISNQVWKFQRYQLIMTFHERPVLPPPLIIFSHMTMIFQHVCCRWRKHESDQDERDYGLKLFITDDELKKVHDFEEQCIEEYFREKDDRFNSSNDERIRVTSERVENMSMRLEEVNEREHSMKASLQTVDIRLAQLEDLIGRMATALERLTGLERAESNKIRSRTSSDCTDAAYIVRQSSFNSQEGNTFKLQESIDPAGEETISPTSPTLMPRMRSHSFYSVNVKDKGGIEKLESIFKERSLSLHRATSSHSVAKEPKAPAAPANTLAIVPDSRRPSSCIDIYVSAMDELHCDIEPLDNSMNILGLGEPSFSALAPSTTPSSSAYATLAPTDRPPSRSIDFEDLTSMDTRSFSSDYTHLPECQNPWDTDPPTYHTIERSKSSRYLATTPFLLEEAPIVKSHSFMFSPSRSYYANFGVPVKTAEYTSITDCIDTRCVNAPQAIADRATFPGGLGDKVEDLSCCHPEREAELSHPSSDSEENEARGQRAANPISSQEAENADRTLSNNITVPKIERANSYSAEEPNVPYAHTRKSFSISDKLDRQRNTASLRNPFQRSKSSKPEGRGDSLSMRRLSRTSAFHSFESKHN

Row | Compound | IC50 [nM]
1 | Cc1oc2ccc(OCc3ccncc3)cc2c1C(=O)O [compound 004, 2-methyl-5-(pyridin-4-ylmethoxy)benzofuran-3-carboxylic acid] | > 20000
2 | Cc1oc2ccc(OCc3ccnn3C)cc2c1C(=O)O [compound 008, 2-methyl-5-((1-methyl-1H-pyrazol-5-yl)methoxy)benzofuran-3-carboxylic acid] | > 20000
3 | Cc1oc2ccc(OCc3nc4ccccc4s3)cc2c1C(=O)O [compound 017, 5-(benzo[d]thiazol-2-ylmethoxy)-2-methylbenzofuran-3-carboxylic acid] | > 20000
4 | Cc1oc2ccc(OCC3CCN(C(=O)OC(C)(C)C)C3)cc2c1C(=O)O (stereo not drawn) [compound 019, 5-((1-(tert-butoxycarbonyl)pyrrolidin-3-yl)methoxy)-2-methylbenzofuran-3-carboxylic acid] | > 20000
5 | Cc1oc2ccc(OCc3cccnc3)cc2c1C(=O)N[C@H]1CCNC1 [compound 022, (S)-2-methyl-5-(pyridin-3-ylmethoxy)-N-(pyrrolidin-3-yl)benzofuran-3-carboxamide] | < 1000
6 | Cc1oc2ccc(OCc3cccnc3)cc2c1C(=O)NC1CCNC1=O (stereo not drawn) [compound 027, 2-methyl-N-(2-oxopyrrolidin-3-yl)-5-(pyridin-3-ylmethoxy)benzofuran-3-carboxamide] | < 1000
7 | Cc1cncc(COc2ccc3oc(C)c(C(=O)N[C@H]4CCNC4)c3c2)c1 [compound 028, (S)-2-methyl-5-((5-methylpyridin-3-yl)methoxy)-N-(pyrrolidin-3-yl)benzofuran-3-carboxamide] | < 1000
8 | Cc1ccc(COc2ccc3oc(C)c(C(=O)NC4CCOC4)c3c2)cn1 (stereo not drawn) [compound 033, 2-methyl-5-((6-methylpyridin-3-yl)methoxy)-N-(tetrahydrofuran-3-yl)benzofuran-3-carboxamide] | > 20000
9 | COc1ccncc1COc1ccc2oc(C)c(C(=O)NC3CCOC3)c2c1 (stereo not drawn) [compound 040, 5-((4-methoxypyridin-3-yl)methoxy)-2-methyl-N-(tetrahydrofuran-3-yl)benzofuran-3-carboxamide] | > 20000
10 | Cc1csc(COc2ccc3oc(C)c(C(=O)NC4CCNC4=O)c3c2)n1 (stereo not drawn) [compound 043, 2-methyl-5-((4-methylthiazol-2-yl)methoxy)-N-(2-oxopyrrolidin-3-yl)benzofuran-3-carboxamide] | < 1000
11 | Cc1oc2ccc(OCc3ccccn3)cc2c1C(=O)NC1(CO)CCOCC1 [compound 047, N-(4-(hydroxymethyl)tetrahydro-2H-pyran-4-yl)-2-methyl-5-(pyridin-2-ylmethoxy)benzofuran-3-carboxamide] | < 1000
12 | COc1ncccc1COc1ccc2oc(C)c(C(=O)NC3CCN(C)CC3)c2c1 [compound 051, 5-((2-methoxypyridin-3-yl)methoxy)-2-methyl-N-(1-methylpiperidin-4-yl)benzofuran-3-carboxamide] | < 1000
13 | Cc1ncsc1COc1ccc2oc(C)c(C(=O)NC3(CO)CCOCC3)c2c1 [compound 054, N-(4-(hydroxymethyl)tetrahydro-2H-pyran-4-yl)-2-methyl-5-((4-methylthiazol-5-yl)methoxy)-benzofuran-3-carboxamide] | < 1000
14 | Cc1ncsc1COc1ccc2oc(C)c(C(=O)NC3CCNCC3(F)F)c2c1 (stereo not drawn) [compound 056, N-(3,3-difluoropiperidin-4-yl)-2-methyl-5-((4-methylthiazol-5-yl)methoxy)benzofuran-3-carboxamide] | < 1000

More lines, now with the values ahead:

Row | IC50 [nM] | Compound
15 | < 1000 | Cc1ncsc1COc1ccc2oc(C)c(C(=O)NC3COCC3O)c2c1 (single isomer, unassigned; dia 1) [162-Dia 1-En1]
16 | < 1000 | Cc1ncsc1COc1ccc2oc(C)c(C(=O)NC3COCC3O)c2c1 (single isomer, unassigned; dia 1) [162-Dia 1-En2]
17 | > 20000 | Cc1oc2ccc(OCC3CCNC3)cc2c1C(=O)O (stereo not drawn) [compound 003, 2-methyl-5-(pyrrolidin-3-ylmethoxy)benzofuran-3-carboxylic acid]
18 | > 20000 | Cc1oc2ccc(OCC3CCOCC3)cc2c1C(=O)O [compound 015, 2-methyl-5-((tetrahydro-2H-pyran-4-yl)methoxy)benzofuran-3-carboxylic acid]
19 | > 20000 | Cc1noc(C)c1COc1ccc2oc(C)c(C(=O)O)c2c1 [compound 016, 5-((3,5-dimethylisoxazol-4-yl)methoxy)-2-methylbenzofuran-3-carboxylic acid]
20 | < 1000 | Cc1oc2ccc(OCc3cncs3)cc2c1C(=O)N[C@H]1CCNC1 [compound 024, (S)-2-methyl-N-(pyrrolidin-3-yl)-5-(thiazol-5-ylmethoxy)benzofuran-3-carboxamide]
21 | < 1000 | Cc1oc2ccc(OCc3nccs3)cc2c1C(=O)N[C@H]1CCNC1 [compound 025, (S)-2-methyl-N-(pyrrolidin-3-yl)-5-(thiazol-2-ylmethoxy)benzofuran-3-carboxamide]
22 | < 1000 | Cc1oc2ccc(OCc3ccccn3)cc2c1C(=O)NC1CCNC1=O (stereo not drawn) [compound 026, 2-methyl-N-(2-oxopyrrolidin-3-yl)-5-(pyridin-2-ylmethoxy)benzofuran-3-carboxamide]
23 | < 1000 | Cc1cccc(COc2ccc3oc(C)c(C(=O)N[C@H]4CCNC4)c3c2)n1 [compound 029, (S)-2-methyl-5-((6-methylpyridin-2-yl)methoxy)-N-(pyrrolidin-3-yl)benzofuran-3-carboxamide]
24 | < 1000 | Cc1oc2ccc(OCc3ccsc3)cc2c1C(=O)NC1CCNC1=O (stereo not drawn) [compound 035, 2-methyl-N-(2-oxopyrrolidin-3-yl) -5-(thiophen-3-ylmethoxy)benzofuran-3-carboxamide]
25 | < 1000 | Cc1cncc(COc2ccc3oc(C)c(C(=O)NC4CCNC4=O)c3c2)c1 (stereo not drawn) [compound 038, 2-methyl-5-((5-methylpyridin-3-yl)methoxy)-N-(2-oxopyrrolidin-3-yl)benzofuran-3-carboxamide]
26 | < 1000 | Cc1oc2ccc(OCc3cccs3)cc2c1C(=O)NC1CCN(C)CC1 [compound 041, 2-methyl-N-(1-methylpiperidin-4-yl)-5-(thiophen-2-ylmethoxy)benzofuran-3-carboxamide]
27 | < 1000 | Cc1ncsc1COc1ccc2oc(C)c(C(=O)NC3CCNC3=O)c2c1 (stereo not drawn) [compound 042, 2-methyl-5-((4-methylthiazol-5-yl)methoxy)-N-(2-oxopyrrolidin-3-yl)benzofuran-3-carboxamide]
28 | < 1000 | Cc1oc2ccc(OCc3ccccn3)cc2c1C(=O)NC1CCNCC1(F)F (stereo not drawn) [compound 048, N-(3,3-difluoropiperidin-4-yl)-2-methyl-5-(pyridin-2-ylmethoxy)benzofuran-3-carboxamide]
29 | < 1000 | Cc1oc2ccc(OCc3nccs3)cc2c1C(=O)NC1(CO)CCOCC1 [compound 049, N-(4-(hydroxymethyl)tetrahydro-2H-pyran-4-yl)-2-methyl-5-(thiazol-2-ylmethoxy)benzofuran-3-carboxamide]

Same assay, conditions: PS (50 μM) stimulated, cpds. 608-666

Row | Compound | IC50 [nM]
30 | Cc1oc2ccc(OCc3nccn3C)cc2c1C(=O)NC1COCC1(F)F (single isomer, unassigned) [cpd 641-En 1] | 1000 to 20000
31 | Cc1ncsc1COc1ccc2oc(C)c(C(=O)NC3CCCCNC3=O)c2c1 (single isomer, unassigned) [cpd 661-En 1] | < 1000

Continued, values first:

Row | IC50 [nM] | Compound
32 | < 1000 | Cc1oc2ccc(OCc3nccn3C)cc2c1C(=O)NC1CNCC1(F)F (single isomer, unassigned) [cpd 638-En 1]
33 | 1000 to 20000 | Cc1oc2ccc(OCc3nccn3C)cc2c1C(=O)NC1CNCC1(F)F (single isomer, unassigned) [cpd 638-En 2]
34 | < 1000 | Cc1oc2ccc(OCc3ccnn3C)cc2c1C(=O)NC1CNCC1(F)F (single isomer, unassigned) [cpd 639-En 1]
35 | < 1000 | Cc1oc2ccc(OCc3ccnn3C)cc2c1C(=O)NC1COCC1(F)F (single isomer, unassigned) [cpd 642-En 1]
36 | < 1000 | Cc1ncc(COc2ccc3oc(C)c(C(=O)NC4COCC4(F)F)c3c2)s1 (single isomer, unassigned) [cpd 643-En 1]
37 | < 1000 | Cc1ncsc1COc1ccc2oc(C)c(C(=O)NC3COCC3(F)F)c2c1 (single isomer, unassigned) [cpd 646-En 1]
38 | < 1000 | Cc1oc2ccc(OCc3ccccn3)cc2c1C(=O)NC1COCC1(F)F (single isomer, unassigned) [cpd 647-En 1]
39 | < 1000 | Cc1oc2ccc(OCc3cccnc3O)cc2c1C(=O)NC1COCC1(F)F (single isomer, unassigned) [cpd 648-En 1]

Same assay, conditions: PS (50 μM) stimulated, cpds. 667-751

Row | Compound | IC50 [nM]
40 | Cc1ncsc1COc1ccc2oc(C)c(C(=O)NC3CCOCC3(F)F)c2c1 (single isomer, unassigned) [cpd 723-En 1] | < 1000
41 | Cc1ncc(COc2ccc3oc(C)c(C(=O)NC4CCOCC4(F)F)c3c2)s1 (single isomer, unassigned) [cpd 724-En 2] | 1000 to 20000
42 | Cc1ncc(COc2ccc3oc(C)c(C(=O)NC4CCS(=N)(=O)C4)c3c2)s1 (single isomer, unassigned) [cpd 727-En 1] | 1000 to 20000
43 | Cc1oc2ccc(OCc3ccccn3)cc2c1C(=O)NC(C)(CO)C(N)=O (single isomer, unassigned) [cpd 738-En 1] | < 1000
44 | Cc1oc2ccc(OCc3ccc(F)cn3)cc2c1C(=O)NC(C)(CO)C(N)=O (single isomer, unassigned) [cpd 739-En 1] | < 1000

Next, values leading:

Row | IC50 [nM] | Compound
45 | < 1000 | Cc1ncc(COc2ccc3oc(C)c(C(=O)NC(C)(CO)C(N)=O)c3c2)o1 (single isomer, unassigned) [cpd 722-En 1]
46 | < 1000 | Cc1ncc(COc2ccc3oc(C)c(C(=O)NC(C)(CO)C(N)=O)c3c2)o1 (single isomer, unassigned) [cpd 722-En 2]
47 | < 1000 | Cc1ncc(COc2ccc3oc(C)c(C(=O)NC4CCOCC4(F)F)c3c2)s1 (single isomer, unassigned) [cpd 724-En 1]
48 | < 1000 | Cc1ncc(COc2ccc3oc(C)c(C(=O)NC(CS(C)(=O)=O)C(N)=O)c3c2)s1 (single isomer, unassigned) [cpd 726-En 1]
